For this data set, the system named is Saos-2 cells. Nature of the data set: GCV tolerance (toxicity of GCV alone to cells). Type of data set: cell-based, human. As to conditions: 1.25×10^−5-6.2×10^−5M. As to the method: The GCV tolerance profile of Saos-2 cells was determined in parallel by treating the cells with various concentrations of GCV (ranging from 0.1 μmole to 2 mM).
The toxicity of the GCV to cells were analysed by subjecting the cells to various concentration of GCV (ranging from 0.1 μmole to 2 mM GCV at 37° C.) for 3 days. The remaining steps of the treatment were carried out as the tk-GCV assay.

As to `Nc1nc(O)c2ncn(COC(CO)CO)c2n1` [Gancyclovir, Ganciclovir], the “effect on cell viability of gancyclovir by itself” value is recorded as “no effect”.

Values taken from patent publication US6943026B1, “Antitumour vector constructs and methods” (Cyclacel Limited, priority 1995, dated 2005).
